According to patent publication US20240239781A1, “1H-PYRAZOLE DERIVATIVES AS SIGMA LIGANDS” (ACONDICIONAMIENTO TARRASENSE, priority 2021, published 2024):

Experiments:
sigma-2 (σ2) site = sigma-2 (σ2) site (Homo sapiens, UniProt Q5BJF2); conditions: background statement; cited from earlier work
[1] = system: mechanical hypersensitivity; conditions: SNI mice model of neuropathic pain; cited from earlier work
human σ2/TMEM97 receptor = target: T1, human σ2/TMEM97 receptor (Homo sapiens, UniProt Q5BJF2); assay: Binding assay to human σ2/TMEM97 receptor ([3H]-DTG, transfected HEK-293 membranes); conditions: class scale, read-out: Binding σ-2 Ki
T1 construct: expressed in transfected cells; host or cells: HEK-293
In short: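 Competition against 10 nM [3H]-DTG (Tris-HCl 50 mM, pH 8.0, 25 °C, 120 min) using 15 μg transfected HEK-293 membrane protein, with 10 μM haloperidol defining NSB. Bound radioactivity counted after filtration; results as single-point % inhibition (1 or 10 μM) or five-point Ki.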

human σ1 receptor = target: T2, human σ1 receptor (Homo sapiens, UniProt Q99720); assay: Human σ1 receptor radioligand assay ([3H](+)-pentazocine, transfected HEK-293 membranes); conditions: class scale, read-out: Binding σ-1 Ki
T2 construct: expressed in transfected cells; host or cells: HEK-293
In short: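 Compounds were tested at a single 1 or 10 μM concentration (% inhibition) or at five concentrations to give Ki. They competed with 5 nM [3H](+)-pentazocine for transfected HEK-293 membranes (7 μg) in 50 mM Tris-HCl pH 8 at 37° C for 120 minutes. Nonspecific binding was set with 10 μM haloperidol, and a filtration scintillation read-out was used.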

T2 sequence (Q99720 whole entry): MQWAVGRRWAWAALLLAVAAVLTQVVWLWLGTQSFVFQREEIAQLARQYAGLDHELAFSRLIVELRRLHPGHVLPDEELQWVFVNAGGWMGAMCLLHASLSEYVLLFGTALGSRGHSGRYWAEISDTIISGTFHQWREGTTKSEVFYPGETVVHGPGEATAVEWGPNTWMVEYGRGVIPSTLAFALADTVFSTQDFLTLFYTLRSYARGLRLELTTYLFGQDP
T1 sequence (Q5BJF2 whole entry): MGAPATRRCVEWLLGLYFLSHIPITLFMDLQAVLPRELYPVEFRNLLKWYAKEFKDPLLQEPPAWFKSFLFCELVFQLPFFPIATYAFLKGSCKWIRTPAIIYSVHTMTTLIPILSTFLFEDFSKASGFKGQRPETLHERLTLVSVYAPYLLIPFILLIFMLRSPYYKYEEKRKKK
sigma-2 (σ2) site, sequence (Q5BJF2 whole entry): as above

Compound	affinity for the sigma-2 (σ2) site (sigma-2 (σ2) site)	effect on mechanical hypersensitivity [1]	Ki (human σ2/TMEM97 receptor) [nM]	Ki (human σ1 receptor) [nM]
(+)-SKF-10047	micromolar affinity			
OCCCN1CCCC2CC1c1cc(-c3ccc(C(F)(F)F)cc3)ccc12 (centres unmarked) [UKH-1114]		relieved mechanical hypersensitivity		
CCCn1nc(-c2cc(C)on2)c(CN2CC3(CCN(CCC(C)(C)C)CC3)CC2=O)c1Cl [Example 226, 2-((5-Chloro-3-(5-methylisoxazol-3-yl)-1-propyl-1H-pyrazol-4-yl)methyl)-8-(3,3-dimethylbutyl)-2,8-diazaspiro[4.5]decan-3-one]			< 100	100 to 500
Cc1cc(-c2nn(C)c(Cl)c2CN2CCCCC(NCCC(C)C)C2)no1 (centres unmarked) [Example 2, 1-((5-Chloro-1-methyl-3-(5-methylisoxazol-3-yl)-1H-pyrazol-4-yl)methyl)-N-isopentylazepan-3-amine]			> 1000	500 to 1000
Cc1cc(-c2nn(C)c(Cl)c2C(=O)N2CCC3(CCN(Cc4ccc(C#N)c(F)c4)CC3)CC2)no1 [Example 131, 4-((9-(5-Chloro-1-methyl-3-(5-methylisoxazol-3-yl)-1H-pyrazole-4-carbonyl)-3,9-diazaspiro[5.5]undecan-3-yl)methyl)-2-fluorobenzonitrile]			500 to 1000	500 to 1000
Cc1cc(-c2nn(C)c(Cl)c2CN2CCCOC(CNCCC(C)C)C2)no1 (centres unmarked) [Example 64, N-((4-((5-Chloro-1-methyl-3-(5-methylisoxazol-3-yl)-1H-pyrazol-4-yl)methyl)-1,4-oxazepan-2-yl)methyl)-3-methylbutan-1-amine]			100 to 500	100 to 500
CCn1nc(-c2cnn(C(C)C)c2)c(C(=O)NC2CC3(CCN(CCC(C)(C)C)CC3)C2)c1Cl [Example 149, 5-Chloro-N-(7-(3,3-dimethylbutyl)-7-azaspiro[3.5]nonan-2-yl)-1-ethyl-1′-isopropyl-1H,1′H-[3,4′-bipyrazole]-4-carboxamide]			< 100	100 to 500
CCn1nc(-c2cc(C)on2)c(C(=O)NC2CCCN(CCC(C)(C)C)C2)c1Cl (centres unmarked) [Example 202, 5-Chloro-N-(1-(3,3-dimethylbutyl)piperidin-3-yl)-1-ethyl-3-(5-methylisoxazol-3-yl)-1H-pyrazole-4-carboxamide]			100 to 500	100 to 500
CCn1nc(-c2ccon2)c(CC(=O)N2CCCC3(CCN(CCC(C)(C)C)CC3)C2)c1Cl [Example 218, 2-(5-Chloro-1-ethyl-3-(isoxazol-3-yl)-1H-pyrazol-4-yl)-1-(9-(3,3-dimethylbutyl)-2,9-diazaspiro[5.5]undecan-2-yl)ethan-1-one]			< 100	> 1000
Cn1nc(-c2cc(C3CC3)on2)c(C(=O)N2CCC3(CCN(CCC(C)(C)C)CC3)CC2)c1Cl [Example 191, (5-Chloro-3-(5-cyclopropylisoxazol-3-yl)-1-methyl-1H-pyrazol-4-yl)(9-(3,3-dimethylbutyl)-3,9-diazaspiro[5.5]undecan-3-yl)methanone]			< 100	100 to 500
Cn1nc(-c2cccc(C(F)(F)F)n2)c(CN2CC3(CCN(CCC(C)(C)C)CC3)CC2=O)c1Cl [Example 227, 2-((5-Chloro-1-methyl-3-(6-(trifluoromethyl)pyridin-2-yl)-1H-pyrazol-4-yl)methyl)-8-(3,3-dimethylbutyl)-2,8-diazaspiro[4.5]decan-3-one]			< 100	< 100
